From BigSolDB 2.1

CC(C)c1ccc2sc3ccccc3c(=O)c2c1
Conditions	solubility (mole fraction)
in 1,2-dichloroethane, 306.25 K	0.392
in 1,2-dichloroethane, 309.15 K	0.424
in 1,2-dichloroethane, 311.25 K	0.455
in 1,2-dichloroethane, 315.15 K	0.486
in 1,2-dichloroethane, 318.15 K	0.516
in 1,2-dichloroethane, 321.15 K	0.546
in 1,2-dichloroethane, 324.65 K	0.572
in 1,2-dichloroethane, 326.85 K	0.615
in 1,4-dioxane, 307.15 K	0.34
in 1,4-dioxane, 310.15 K	0.381
in 1,4-dioxane, 314.05 K	0.429
in 1,4-dioxane, 317.15 K	0.475
in 1,4-dioxane, 320.05 K	0.512
in 1,4-dioxane, 323.15 K	0.543
in 1,4-dioxane, 326.65 K	0.589
in 1,4-dioxane, 329.85 K	0.637
in acetone, 299.15 K	0.126
in acetone, 303.15 K	0.167
in acetone, 307.15 K	0.219
in acetone, 310.15 K	0.266
in acetone, 314.25 K	0.319
in acetone, 317.15 K	0.358
in acetone, 320.15 K	0.383
in acetone, 323.15 K	0.417
in ethanol, 305.65 K	0.0424
in ethanol, 307.95 K	0.0493
in ethanol, 309.65 K	0.0557
in ethanol, 312.15 K	0.0703
in ethanol, 315.15 K	0.1
in ethanol, 318.15 K	0.154
in ethanol, 321.15 K	0.26
in ethyl acetate, 305.25 K	0.192
in ethyl acetate, 308.15 K	0.24
in ethyl acetate, 311.65 K	0.283
in ethyl acetate, 314.15 K	0.325
in ethyl acetate, 317.05 K	0.355
in ethyl acetate, 320.15 K	0.409
in ethyl acetate, 323.65 K	0.461
in ethyl acetate, 327.15 K	0.511
in methanol, 299.15 K	0.00556
in methanol, 302.15 K	0.00643
in methanol, 305.15 K	0.00761
in methanol, 308.15 K	0.00911
in methanol, 311.15 K	0.0113
in methanol, 314.15 K	0.0145
in methanol, 317.15 K	0.0196
in methanol, 320.15 K	0.0264
in toluene, 304.65 K	0.332
in toluene, 308.15 K	0.374
in toluene, 311.65 K	0.412
in toluene, 315.15 K	0.453
in toluene, 318.15 K	0.489
in toluene, 321.05 K	0.526
